The values below come from patent US8044100B2, “Methods and compositions for treating amyloid-related diseases” (Bellus Health Inc., priority 2004, dated 2011).

In the assay the test system is Aβ peptides (Aβ40, Aβ42) in the plasma and brain of TgCRND8 mice. Nature of the assay: Short term treatment (14 or 28 days) in TgCRND8 mice: Aβ levels in plasma and brain by ELISA.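 On Aβ40 Change Insoluble: symbols grade percent change in Aβ versus untreated control with plus for increase and minus for decrease.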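 On Aβ40 Change Soluble: symbols grade percent change in Aβ versus untreated control with plus for increase and minus for decrease.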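 On Aβ42 Change Insoluble: symbols grade percent change in Aβ versus untreated control with plus for increase and minus for decrease.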 The class given is in vivo, mouse. Conditions: for Aβ40 Change / Aβ42 Change: plasma. Here is the method:
The short term therapeutic effect of 19 compounds of the invention was studied. These compounds were administered over a 14 or 28 day period at the end of which the levels of Aβ peptides in the plasma and brain of TgCRND8 animals were determined.
Male and female transgenic mice from the 3rd and 4th B6C3F1 generations were used in this example and given daily subcutaneous or oral administrations of one of a series of compounds for 14 or 28 days. The following abbreviations are used to designate these animals from the 3rd and 4th generation backcross in the present protocol: TgCRND8-2.B6C3F1(N3); TgCRND8-2.B6C3F1 (N4).
Baseline animals (Group 1) consisted of naive TgCRND8-2. B6C3F1(N3) at 11±1 weeks of age. These mice were used to determine the Aβ levels in the plasma and brain of naive transgenic animals at the initiation of treatment.
Starting at 11 weeks of age (±1 week) animals received daily administration of their respective treatment for a period of 14 or 28 days (groups 2-21), at a dose of 250 mg/kg at 10 ml/kg or of vehicle only (water; group 2) or 1% methyl cellulose only (group 21). The route of administration was subcutaneous for water-soluble compounds and oral for compounds solubilized in methylcellulose 1%. (MC 1%). At the end of the treatment periods, plasma and perfused brains were collected for quantification of Aβ levels.
At 11±1 weeks of age for the Baseline group, and at the end of the treatment period (14 or 28 days) for Groups 2 to 21, at 24 hours after the last compound administration animals were sacrificed and samples collected. An approximate blood volume of 500 μl was collected from the orbital sinus and kept on ice until centrifugation at 4° C. at a minimum speed of 3,000 rpm for 10 minutes. Plasma samples were immediately frozen and stored at −80° C. pending analysis. The brains were removed, frozen, and stored at −80° C. awaiting analysis.
Brains were weighted frozen and homogenized with 4 volumes of ice cold 50 mM Tris-Cl pH 8.0 buffer with protease inhibitor cocktail (4 mL of buffer for 1 g of wet brain). Samples were spun at 15000 g for 20 minutes and the supernatants were transferred to fresh tubes. One hundred fifty (150) μl from each supernatant were mixed with 250 μl of 8M guanidine-HCL/50 mM Tris-HCL pH 8.0 (ratio of 0.6 vol supernatant:1 vol 8M guanidium/Tris-HCL 50 mM pH8.0) and 400 μL 5 M guanidium/Tris-HCL 50 mM pH8.0 were added. The tubes were vortexed for 30 seconds and frozen at −80° C. In parallel, pellets were treated with 7 volumes of 5 M guanidine-HCL/50 mM Tris-HCL pH 8.0 (7 mL of guanidine for 1 g of wet brain), vortexed for 30 seconds and frozen at −80° C. Samples were thawed at room temperature, sonicated at 80° C. for 15 minutes and frozen again. This cycle was repeated 3 times to ensure homogeneity and samples were returned to −80° C. pending analysis.
Aβ levels were evaluated in plasma and brain samples by ELISA using Human Aβ40 and Aβ42 Fluorometric ELISA kits from Biosource (Cat. No. 89-344 and 89-348) according to manufacturer's recommended procedures. In short, samples were thawed at room temperature, sonicated for 5 minutes at 80° C. (sonication for brain homogenates; no sonication for plasma samples) and kept on ice. Aβ peptides were captured using 100 μl of the diluted samples to the plate and incubated without shaking at 4° C. overnight. The samples were aspirated and the wells were rinsed 4 times with wash buffer obtained from the Biosource ELISA kit. The anti-Aβ40 or anti-Aβ42 rabbit polyclonal antiserum (specific for the Aβ40 or Aβ42 peptide) was added (100 μl) and the plate was incubated at room temperature for 2 hours with shaking. The wells were aspirated and washed 4 times before adding 100 μl of the alkaline phosphatase labeled anti-rabbit antibody and incubating at room temperature for 2 hours with shaking. The plates were then rinsed 5 times and the fluorescent substrate (100 μl) was added to the plate. […]
In general terms: ELISA stands for enzyme-linked immunosorbent assay.

Where [1] appears, read: brain homogenate, Day 28, vehicle group, 250 mg/kg daily, total, not soluble/insoluble.
[2] abbreviates: Day 14, vehicle (water) group, 250 mg/kg daily subcutaneous.
Setting [3] is: Day 28, vehicle (water) group, 250 mg/kg daily subcutaneous.
Setting [4] is: brain homogenate, Day 14, vehicle group, 250 mg/kg daily.
Where [5] appears, read: brain homogenate, Day 28, vehicle group, 250 mg/kg daily.
[6] abbreviates: brain homogenate, Day 14, methylcellulose group, daily oral.
Setting [7] is: brain homogenate, Day 28, methylcellulose group, daily oral.

In the case of `CCNCCCS(=O)(=O)O` [CV], the “Aβ40 Change (total level)” value is, setting by setting: (brain homogenate, Day 14, vehicle group, 250 mg/kg daily, total, not soluble/insoluble) “− (Decreases in the levels of Aβ of 5 to 19%)”; under setting [1], “++ (increases of 40 to 69%)”. For the same compound, under setting [1], the “Aβ42 Change (total level)” value is on record as “+++ (increases of 70% or higher)”. The “Aβ40 Change” value is recorded as “+ (increases in the levels of Aβ (relative to untreated control) of 20 to 39%)” under setting [2] and “++ (increases of 40 to 69%)” under setting [3]. Further, the “Aβ42 Change” value was “++ (increases of 40 to 69%)” under setting [2] and “++ (increases of 40 to 69%)” under setting [3].

On to `C#CC1(NCCCS(=O)(=O)O)CCCCC1` [DX], for which, under setting [4], the “Aβ40 Change Insoluble” value is on record as “−− (decreases of 20 to 38%)” and the “Aβ42 Change Insoluble” value was “− (Decreases in the levels of Aβ of 5 to 19%)”. For the same compound, under setting [5], the “Aβ40 Change Insoluble” value is reported as “−− (decreases of 20 to 38%)”, the “Aβ42 Change Insoluble” value is “−− (decreases of 20 to 38%)” and the “Aβ42 Change Soluble” value is reported as “− (Decreases in the levels of Aβ of 5 to 19%)”.

Turning to `CC12CC3CC(C)(C1)CC(NCCCS(=O)(=O)O)(C3)C2` [CY], under setting [6], the “Aβ40 Change Soluble” value is “− (Decreases in the levels of Aβ of 5 to 19%)”, the “Aβ42 Change Insoluble” value was “++ (increases of 40 to 69%)” and the “Aβ42 Change Soluble” value is “+++ (increases of 70% or higher)”. For the same compound, under setting [7], the “Aβ40 Change Insoluble” value is given as “+++ (increases of 70% or higher)”, the “Aβ40 Change Soluble” value is reported as “++ (increases of 40 to 69%)”, the “Aβ42 Change Insoluble” value is on record as “+ (increases in the levels of Aβ (relative to untreated control) of 20 to 39%)” and the “Aβ42 Change Soluble” value was “+++ (increases of 70% or higher)”. For the same compound, the “Aβ42 Change” value (Day 28, methylcellulose group, daily oral) is “+ (increases in the levels of Aβ (relative to untreated control) of 20 to 39%)”.

With `COC[C@H](NCCCS(=O)(=O)O)[C@@H](O)c1ccccc1` [EG], under setting [4], the “Aβ40 Change Insoluble” value is “−− (decreases of 20 to 38%)”, the “Aβ40 Change Soluble” value was “− (Decreases in the levels of Aβ of 5 to 19%)”, the “Aβ42 Change Insoluble” value is “−− (decreases of 20 to 38%)” and the “Aβ42 Change Soluble” value was “−− (decreases of 20 to 38%)”. In addition, under setting [5], the “Aβ40 Change Insoluble” value is “−− (decreases of 20 to 38%)” and the “Aβ42 Change Insoluble” value is “−− (decreases of 20 to 38%)”.

In the case of `CC(C)(CO)NCCCS(=O)(=O)O` [DH], under setting [4], the “Aβ40 Change Insoluble” value is reported as “−− (decreases of 20 to 38%)”, the “Aβ42 Change Insoluble” value is “−−− (decreases of 39% or more)” and the “Aβ42 Change Soluble” value is listed as “−−− (decreases of 39% or more)”. Under setting [5], the “Aβ40 Change Insoluble” value is recorded as “− (Decreases in the levels of Aβ of 5 to 19%)” and the “Aβ42 Change Insoluble” value is reported as “− (Decreases in the levels of Aβ of 5 to 19%)”.

As to `COc1ccc([C@H](C)NCCCS(=O)(=O)O)cc1` [DZ], the “Aβ42 Change Insoluble” value under setting [4] is “−− (decreases of 20 to 38%)”. Under setting [5], the “Aβ40 Change Insoluble” value is reported as “−− (decreases of 20 to 38%)”, the “Aβ40 Change Soluble” value is “− (Decreases in the levels of Aβ of 5 to 19%)”, the “Aβ42 Change Insoluble” value is “−− (decreases of 20 to 38%)” and the “Aβ42 Change Soluble” value is on record as “−− (decreases of 20 to 38%)”.

For the compound `CC(C)(NCCCS(=O)(=O)O)c1ccccc1` [DM], under setting [4], the “Aβ40 Change Insoluble” value was “+ (increases in the levels of Aβ (relative to untreated control) of 20 to 39%)”, the “Aβ42 Change Insoluble” value is on record as “− (Decreases in the levels of Aβ of 5 to 19%)” and the “Aβ42 Change Soluble” value was “− (Decreases in the levels of Aβ of 5 to 19%)”. Besides, under setting [5], the “Aβ40 Change Insoluble” value was “−− (decreases of 20 to 38%)”, the “Aβ40 Change Soluble” value was “− (Decreases in the levels of Aβ of 5 to 19%)”, the “Aβ42 Change Insoluble” value was “−− (decreases of 20 to 38%)” and the “Aβ42 Change Soluble” value is “−− (decreases of 20 to 38%)”.

In the case of `O=S(=O)(O)CCCNCC(O)c1ccccc1` (centres unmarked) [DY], under setting [4], the “Aβ40 Change Insoluble” value was “−− (decreases of 20 to 38%)” and the “Aβ42 Change Insoluble” value is “−− (decreases of 20 to 38%)”. Besides, under setting [5], the “Aβ40 Change Insoluble” value is listed as “−−− (decreases of 39% or more)”, the “Aβ42 Change Insoluble” value is “−− (decreases of 20 to 38%)” and the “Aβ42 Change Soluble” value is “− (Decreases in the levels of Aβ of 5 to 19%)”.

Consider `CCC(CC)NCCCS(=O)(=O)O` [DD], for which the “Aβ40 Change Insoluble” value runs as follows: under setting [4], “− (Decreases in the levels of Aβ of 5 to 19%)”; under setting [5], “− (Decreases in the levels of Aβ of 5 to 19%)”.

Turning to `O=S(=O)(O)CC(O)CNC1CCCCC1` (centres unmarked) [DC], under setting [4], the “Aβ40 Change Insoluble” value is listed as “−− (decreases of 20 to 38%)”, the “Aβ42 Change Insoluble” value is given as “−− (decreases of 20 to 38%)” and the “Aβ42 Change Soluble” value is given as “+ (increases in the levels of Aβ (relative to untreated control) of 20 to 39%)”. Besides, under setting [5], the “Aβ40 Change Insoluble” value is “+ (increases in the levels of Aβ (relative to untreated control) of 20 to 39%)”, the “Aβ40 Change Soluble” value is on record as “− (Decreases in the levels of Aβ of 5 to 19%)”, the “Aβ42 Change Insoluble” value is recorded as “+++ (increases of 70% or higher)” and the “Aβ42 Change Soluble” value is “++ (increases of 40 to 69%)”. Under setting [2], the “Aβ40 Change” value was “++ (increases of 40 to 69%)” and the “Aβ42 Change” value is “++ (increases of 40 to 69%)”. In addition, under setting [3], the “Aβ40 Change” value was “++ (increases of 40 to 69%)”.

Turning to `CC1CC(NCCCS(=O)(=O)O)CC(C)(C)C1` (centres unmarked) [ED], under setting [4], the “Aβ40 Change Insoluble” value is given as “+ (increases in the levels of Aβ (relative to untreated control) of 20 to 39%)” and the “Aβ40 Change Soluble” value is on record as “− (Decreases in the levels of Aβ of 5 to 19%)”. Under setting [5], the “Aβ40 Change Insoluble” value is “−− (decreases of 20 to 38%)”, the “Aβ40 Change Soluble” value is listed as “− (Decreases in the levels of Aβ of 5 to 19%)”, the “Aβ42 Change Insoluble” value is “− (Decreases in the levels of Aβ of 5 to 19%)” and the “Aβ42 Change Soluble” value is recorded as “− (Decreases in the levels of Aβ of 5 to 19%)”.

Regarding `O=S(=O)(O)CCCNC1CC2CCC1C2` (centres unmarked) [BY], under setting [4], the “Aβ40 Change Insoluble” value was “+++ (increases of 70% or higher)”, the “Aβ40 Change Soluble” value is “+++ (increases of 70% or higher)” and the “Aβ42 Change Soluble” value is given as “+++ (increases of 70% or higher)”. Under setting [5], the “Aβ40 Change Insoluble” value is on record as “+++ (increases of 70% or higher)”, the “Aβ40 Change Soluble” value is on record as “+ (increases in the levels of Aβ (relative to untreated control) of 20 to 39%)” and the “Aβ42 Change Insoluble” value is given as “+++ (increases of 70% or higher)”. Further, under setting [2], the “Aβ40 Change” value is “+ (increases in the levels of Aβ (relative to untreated control) of 20 to 39%)” and the “Aβ42 Change” value is on record as “+ (increases in the levels of Aβ (relative to untreated control) of 20 to 39%)”.
